Patent publication US9359451B2, “Methods and compositions for treating trauma-hemorrhage using estrogen and derivatives thereof” (THE UAB RESEARCH FOUNDATION, priority 2012, dated 2016)

Experiments:
Splenocytes = test: Splenocyte proliferation and cytokine release after trauma-hemorrhage (ex vivo, Con A); format: in vivo, mouse
Procedure: Experimental groups. Ovariectomy was performed in female CBA/J mice 2 wk before trauma-hemorrhage using two dorsolateral incisions. […] Two weeks after ovariectomy, the animals were divided into four groups. Groups 1 and 2 consisted of sham-operated ovariectomized females, which were neither hemorrhaged nor resuscitated. Animals in groups 3 and 4 consisted of ovariectomized females, which were subjected to the trauma-hemorrhage procedure. Immediately before initiation of fluid resuscitation, animals in groups 1 and 3 received a subcutaneous injection of vehicle ([…] corn oil), and animals in groups 2 and 4 were treated with E2 ([…]/25 g body wt dissolved in […] corn oil). Each group consisted of 7-8 animals.
Trauma-hemorrhage procedure. Mice in the trauma-hemorrhage groups were lightly anesthetized with methoxyflurane (Metofane; Pitman Moore, Mundelein, Ill.) and restrained in a supine position, and a 2.5-cm midline laparotomy (i.e., soft tissue trauma induced) was performed, which was then closed aseptically in two layers using 6-0 Ethilon sutures (Ethicon, Somerville, N.J.). Both femoral arteries were then aseptically cannulated with polyethylene-10 tubing (Clay-Adams, Parsippany, N.J.) using a minimal dissection technique, and the animals were allowed to awaken. Blood pressure was constantly monitored by attaching one of the catheters to a blood pressure analyzer (Micro-Med, Louisville, Ky.). Lidocaine was applied to the incision sites to provide analgesia during the study period. Upon awakening, the animals were bled through the other catheter to a mean arterial blood pressure of 35±5 mmHg (mean arterial blood pressure prehemorrhage was 95±5 mmHg), which was maintained for 90 min. At the end of that procedure, the animals were resuscitated with four times the shed blood volume in the form of lactated Ringer solution. The catheters were then removed, the vessels were ligated, and the groin incisions were closed. Sham-operated animals underwent the same surgical procedure, which included ligation of both femoral arteries, but neither hemorrhage nor fluid resuscitation was carried out. There was no mortality observed in this model of trauma-hemorrhage.
Preparation of splenocyte culture. At 24 h after sham operation or trauma-hemorrhage and resuscitation, the spleens were removed aseptically and placed in separate petri dishes containing 4° C. phosphate-buffered saline (PBS) solution. Splenocytes were isolated as previously described in detail (Zellweger 1995). Briefly, the organs were gently ground between frosted microscope slides to produce a single cell suspension. This suspension was centrifuged at 300 g for 15 min. After resuspension, the erythrocytes were lysed hypotonically, and the remaining cells were washed with PBS by centrifugation (300 g, 15 min). Viability was tested using trypan blue exclusion and found to be ˜95% regardless of the group assessed. […] The ability of the splenocyte cultures to produce cytokines in response to a mitogenic challenge was assessed by incubation for 48 h (at 37° C., 5% CO2, and 90% humidity) in the presence of […] concanavalin A (Con A; Pharmacia/LKB Biotech, Piscataway, N.J.). […]
Splenocyte proliferation. […] The cells' ability to proliferate in response to mitogenic stimulation with 0 (negative control) or […] Con A was measured by [^3H]thymidine incorporation technique as previously de scribed (Stephan 1987). […]

[1] = system: Sprague-Dawley adult male rats; test: Traumatic brain injury (lateral fluid percussion): ICP, CPP and pbtO2 monitoring; format: in vivo, rat
Procedure: Sprague-Dawley adult male rats were divided into 4 groups: vehicle, E2-SO4 (1 mg/kg), sham+vehicle and sham+E2-SO4; n=5/group. The TBI model was lateral fluid percussion injury (LFP), induced via a hydraulic pressure pulse to the anesthetized rat's exposed brain. This was introduced through a burr hole in the lateral skull prepared one day prior to LFP. A single iv dose of E2-SO4 or saline vehicle was administered 1 hr after LFP. Physiological parameters were measured 24 hr post-injury.
(§1) In a second experiment, the efficacy of E2-SO4 treatment for TBI in a lateral fluid percussion (LFP) model was examined. This involved 6 groups of rats (n=5/group). All rats received a craniectomy. Groups 1, 2, 4 and 5 received LFP injury. Groups 1 and 4 were treated with E2 (1 mg/kg) 1 hr post-injury, groups 2 and 5 were vehicle (Veh)-treated and groups 3 and 6 were sham. Groups 1-3 underwent intracranial pressure (ICP), cerebral perfusion pressure (CPP) and partial oxygen pressure (pbtO2) monitoring. Groups 4-6 underwent fludoexoyglucose (FDG)-PET/CT and diffusion tensor imaging (DTI) analysis on days 1 and 7 post-induction. Relative standard uptake values (SUV) of upper half of brain to central value, fractional anisotropy (FA) and apparent diffusion coefficient (ADC) maps were calculated.
FIG. 48B is a plot of cerebral perfusion pressure, which is a derivative of mean arterial pressure less ICP. […] The X axis is shown for an extended 2 hours to confirm stability for the various probes used.
The clinical manifestation of edema after TBI can be seen as increased intracranial pressure, with lower brain perfusion pressure and reduced oxygen tension. […] FIG. 44 compares treatments for TBI with hormones, measured over a 120 min period to control the effects of the invasive probe on pressures. The treatments are progesterone (T+progesterone: magenta), progesterone plus E2-SO4 (T+E+P: brown), E2-SO4 (T+E2SO4: red) and EE-3-SO4 (T+EE-3SO4: yellow).

injured brain = test: Traumatic brain injury: FDG-PET/CT, diffusion tensor imaging and MRI edema; format: in vivo, rat
Procedure: as §1
Rats were either treated with E2 or a saline vehicle control, where treatment is administered 1 hour after injury. […] The former is the area of deranged nerves, while the latter constitutes intact nerves.

[2] = 24 h after trauma-hemorrhage, Con A 48 h

## C[C@]12CC[C@@H]3c4ccc(O)cc4CC[C@H]3[C@@H]1CC[C@@H]2O [17β-estradiol]
Splenocytes; [2]
  splenocyte IFN-γ release: no depression of IFN-γ production was observed
  splenocyte IL-2 production: restored IL-2 productive capacity
  splenocyte IL-3 release: significantly improved splenocyte IL-3 release capacity
Splenocytes; 24 h after trauma-hemorrhage, Con A, [3H]thymidine
  splenocyte proliferative capacity: no depression of splenocyte proliferative capacity was observed
Splenocytes; after trauma-hemorrhage compared with E2-treated sham-operated animals
  splenocyte IL-10 production: significantly reduced IL-10 production
[1]; FIG. 48, E2 treatment administered 24 hours after TBI
  oxygen delivery to the injured brain: enhances oxygen delivery to the injured brain
[1]; TBI (LFP), 1 mg/kg 1 hr post-injury, Veh 65.2±1.4, sham 82.1±1.3
  CPP (cerebral perfusion pressure): 75.7±1.4 mmHg
[1]; TBI (LFP), 1 mg/kg iv 1 hr after injury, 24 hr post-injury, vehicle 15.8±1.3, sham 39.6
  pbtO2 (brain tissue oxygen partial pressure): 34.1±1.6 mmHg
Injured brain; FIG. 49, treatment 1 hour after injury, images 24 hr after treatment
  reduction in FA, sum of volumes from DTI slices, compared to vehicle controls: approximately 50%
Injured brain; between Veh and treated groups
  FA (fractional anisotropy) change: No significant FA change
Injured brain; day 1, treated group
  Edema size: 10.4±2.6 mm^3
Injured brain; day 7, treated group
  Edema size: 1.2±0.7 mm^3
